B1: PpKAI2L-H (Physcomitrium patens) (protein)
chain: MPSPLLSTHNVTVLGNRSDPVVVLGHGLGTDQSVWKYTVPSLVNQNFQVVLYDTMGAGSTETSDFNFKRYSSLQGHVDDLLAILDELEIENCVYVGHSMSGMIGVLASLERPDLFRKLILLSASPRYLNDSSYYGGFEQEDLDQLFSSMRSNFSAWVSGFATAAVGTDIHDEAVQEFSSTFISMRPDVALRTSQFVFQSDFRSILSEVTVPCHIVQSRKDIAVPIEVAEYLRCNLGGWTSVDILQTDGHLPQLSCPELVVPVLLHCIDS
B2: AtKAI2 (Arabidopsis thaliana) (protein)
chain: MGVVEEAHNVKVIGSGEATIVLGHGFGTDQSVWKHLVPHLVDDYRVVLYDNMGAGTTNPDYFDFDRYSNLEGYSFDLIAILEDLKIESCIFVGHSVSAMIGVLASLNRPDLFSKIVMISASPRYVNDVDYQGGFEQEDLNQLFEAIRSNYKAWCLGFAPLAVGGDMDSIAVQEFSRTLFNMRPDIALSVGQTIFQSDMRQILPFVTVPCHILQSVKDLAVPVVVSEYLHANLGCESVVEVIPSDGHLPQLSSPDSVIPVILRHIRNDIAM

Tests used:
[1] = molecular target: T1, PpKAI2L-K (Physcomitrium patens, UniProt A9S299); settings: apparent Kd
T1 sequence (A9S299 1-270): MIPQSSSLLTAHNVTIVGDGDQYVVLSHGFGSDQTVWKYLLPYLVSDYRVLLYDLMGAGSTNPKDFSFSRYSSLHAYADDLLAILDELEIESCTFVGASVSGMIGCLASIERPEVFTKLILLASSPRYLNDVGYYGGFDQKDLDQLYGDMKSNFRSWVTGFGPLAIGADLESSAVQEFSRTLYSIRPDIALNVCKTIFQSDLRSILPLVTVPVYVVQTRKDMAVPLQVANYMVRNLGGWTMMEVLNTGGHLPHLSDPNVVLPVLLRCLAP

[2] = molecular target: AtD14 (Arabidopsis thaliana, UniProt Q9SQR3); experiment: biochemical
[3] = molecular target: T2, PpKAI2L-D (Physcomitrium patens, UniProt A9SSF6); settings: apparent Kd
T2 sequence (A9SSF6 1-271): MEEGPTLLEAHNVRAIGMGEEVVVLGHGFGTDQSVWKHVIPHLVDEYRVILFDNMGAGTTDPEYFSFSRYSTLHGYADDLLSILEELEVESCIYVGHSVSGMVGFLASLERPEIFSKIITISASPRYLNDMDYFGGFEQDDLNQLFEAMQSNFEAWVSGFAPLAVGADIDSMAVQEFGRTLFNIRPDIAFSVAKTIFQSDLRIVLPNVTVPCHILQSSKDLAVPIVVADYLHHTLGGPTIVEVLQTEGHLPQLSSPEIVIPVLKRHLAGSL

[4] = molecular target: T3, PpKAI2L-E (Physcomitrium patens, UniProt A9ST85); settings: apparent Kd
T3 sequence (A9ST85 1-270): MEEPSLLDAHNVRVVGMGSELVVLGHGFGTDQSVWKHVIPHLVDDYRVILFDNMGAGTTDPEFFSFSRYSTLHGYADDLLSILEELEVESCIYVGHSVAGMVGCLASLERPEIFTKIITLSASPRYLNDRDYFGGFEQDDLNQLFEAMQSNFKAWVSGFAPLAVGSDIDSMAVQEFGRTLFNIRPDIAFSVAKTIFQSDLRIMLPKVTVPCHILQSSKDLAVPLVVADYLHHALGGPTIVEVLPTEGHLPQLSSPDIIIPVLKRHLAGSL

[5] = molecular target: T4, AtKAI2 (Arabidopsis thaliana, UniProt Q9SZU7); experiment: biochemical
T4 sequence (Q9SZU7 1-270): B2 chain

[6] = substrate: CC(=O)Oc1ccc([N+](=O)[O-])cc1; experiment: purified protein

AtD14, sequence (Q9SQR3 whole entry): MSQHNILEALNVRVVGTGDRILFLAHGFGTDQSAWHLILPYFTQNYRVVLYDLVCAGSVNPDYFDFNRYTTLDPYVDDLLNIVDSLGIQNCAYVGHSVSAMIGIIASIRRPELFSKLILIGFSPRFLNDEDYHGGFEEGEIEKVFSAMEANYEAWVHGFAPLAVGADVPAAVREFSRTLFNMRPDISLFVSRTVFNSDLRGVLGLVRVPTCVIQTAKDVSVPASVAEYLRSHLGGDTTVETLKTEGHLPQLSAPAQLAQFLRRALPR

Molecule | Kd [1] | Kd [2] | Kd [3] | Kd [4] | Kd [5] | Km [6] | kcat [6]
CC1=C[C@H](O/C=C2/C(=O)O[C@@H]3c4ccccc4C[C@H]23)OC1=O [(+)-GR24] | 107 µM | 22.8 ± 9.27 µM | – | – | – | – | –
CC1=C[C@@H](O/C=C2/C(=O)O[C@H]3c4ccccc4C[C@@H]23)OC1=O [(-)-GR24] | 41 µM | 94 µM | 92 µM | 39 µM | 45 µM | – | –
B1 | – | – | – | – | – | 2381 ± 644 µM | 34.02 ± 5.83 s⁻¹
B2 | – | – | – | – | – | 610.1 ± 36.69 µM | 2.647 ± 0.06558 s⁻¹
